Values quoted from earlier work in patent US5932763A, “Inhibition of matrix metalloproteases by 2-(ω-arolalkyl)-4-biaryl-4-oxobutyric acids” (Bayer Corporation, priority 1997, dated 1999).

How the values were obtained:
[1] = system: human colon tumor; conditions: given intraperitoneally; orthotopic model in nude mice
[2] = system: human ovarian carcinoma xenografts; conditions: mouse, in vivo
[3] = Child, et al., J. Pharm. Sci., 66, 466, 1977

Question: Which “human colon tumor growth and spread” value [1] does the source give for CNC(=O)[C@H](Cc1ccccc1)NC(=O)[C@H](CC(C)C)[C@H](CSc1cccs1)C(=O)NO [batimastat] here?
Answer: inhibits human colon tumor growth and spread

Question: What about the “survival of mice bearing human ovarian carcinoma xenografts” value [2] of the same compound?
Answer: prolongs the survival

Question: Which “activity of fenbufen analogs (described as inactive)” value (“activity of fenbufen analogs” for short) [3] does the source give for CC(CC(=O)c1ccc(-c2ccccc2)cc1)C(=O)O (centres unmarked) [XLVII] here?
Answer: inactive

Question: With O=C(CC(C(=O)O)c1ccccc1)c1ccc(-c2ccccc2)cc1 (centres unmarked) [XLIX] as the compound, how does the “activity of fenbufen analogs” value [3] read?
Answer: inactive

Question: For O=C(O)CC(C(=O)c1ccc(-c2ccccc2)cc1)c1ccccc1 (centres unmarked) [LXXVII], which “activity of fenbufen analogs” value [3] is on record?
Answer: inactive
